Patent US20260049089A1, “KRAS INHIBITOR COMPOUND” (SHANGHAI APEIRON THERAPEUTICS COMPANY LIMITED, priority 2022, published 2026)
pIC50: −log10 of the molar value. Like-named read-outs stand apart in the source and are kept apart here.

Columns and labels:
[1] = the molecule shown is the open-chain precursor
AsPC-1 cells = assay: 3D cell proliferation assay (CellTiter-Glo 3D), AsPC-1; type: cell-based; conditions: Homo sapiens, ASPC1, 120 h, 5 days, read-out: 3D Proliferation Inhibition AsPC-1_IC50
Method: (§1) Using a nanoliter liquid handling system (LABCYTE, P-0200), the diluted test compounds were added to a 384-well low-adsorption cell culture plate. Cells were seeded into the wells, and the plate was placed in an incubator at 37° C. with 5% CO2. After co-incubating the compounds and cells for 5 days, CellTiter-Glo® 3D reagent was added. Luminescence values were measured using an EnVision Multilabel Plate Reader (luminescence is proportional to the ATP content in the system, and ATP content directly reflects the number of viable cells). Finally, the IC50 values (half-maximal inhibitory concentrations) of the compounds were determined using non-linear fitting equations in XLFit software with the following parameters: […]
(§2) X: Logarithm of compound concentration • Y: Inhibition rate (%)
(§3) [formula] • Negative control: DMSO • Positive control: Medium only

AGS cells = assay: 3D cell proliferation assay (CellTiter-Glo 3D), AGS; type: cell-based; conditions: Homo sapiens, AGS, 120 h, 5 days, read-out: 3D Proliferation Inhibition AGS_IC50
Method: as §1, §2, §3

pERK in AGS cells = assay: ERK phosphorylation cell assay, AGS; type: cell-based; conditions: Homo sapiens, AGS, 3 h, 3 hours compound incubation, read-out: pERK AGS_IC50
Method in brief: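 AGS […] cells, seeded overnight, were treated with compound for 3 hours at 37° C. pERK was detected by in-cell immunofluorescence, with GAPDH as normalizer, using 800CW/680RD secondary antibodies. Mean relative p-ERK levels were fitted against log concentration, with DMSO as negative and 10 μM Reference as positive control.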

pERK in AsPC-1 cells = assay: ERK phosphorylation cell assay, AsPC-1; type: cell-based; conditions: Homo sapiens, ASPC1, AsPC-1 cells; read-out: pERK AsPC-1_IC50

Row | Structure (SMILES) | pIC50 (AsPC-1 cells) | pIC50 (AGS cells) | pIC50 (pERK in AGS cells) | pIC50 (pERK in AsPC-1 cells) | ring closure, isolated yield ([1]; cc_pd bond, 15-membered ring, PdCl2(PPh3)2/CuI/I2, toluene/iPr2NH 1:1, 1.1 mM, 80.0 °C) [%] | ring closure, isolated yield ([1]; amine bond, 12-membered ring, PPh3/DIAD, THF, 32.5 mM, 65.0 °C) [%]
1 | C#CCCCCC(=O)Nc1cc2c(N3C[C@H]4CC[C@@H](C3)N4C(=O)OC(C)(C)C)nc(OCC(F)(F)F)nc2c(F)c1-c1cc(OCOC)cc2ccc(F)c(C#C)c12 |  |  |  |  | 53 | 
2 | COCOc1cc(-c2c(NC(=O)OCc3ccccc3)cc3c(N4C[C@H]5CC[C@@H](C4)N5C(=O)OC(C)(C)C)nc(OCC(F)(F)F)nc3c2F)c2c(CCCCCCO)c(F)ccc2c1 |  |  |  |  |  | 34

Second part, led by results:

Row | pIC50 (AsPC-1 cells) | pIC50 (AGS cells) | pIC50 (pERK in AGS cells) | pIC50 (pERK in AsPC-1 cells) | Structure (SMILES) | ring closure, isolated yield ([1]; cc_pd bond, 15-membered ring, PdCl2(PPh3)2/CuI/I2, toluene/iPr2NH 1:1, 1.1 mM, 80.0 °C) [%] | ring closure, isolated yield ([1]; amine bond, 12-membered ring, PPh3/DIAD, THF, 32.5 mM, 65.0 °C) [%]
3 | 6.95 | 7.08 | 7.70 | 7.77 | C=C1CN2C[C@H](F)C[C@]2(COc2nc(N3CCC[C@@](C)(O)C3)c3cc4c(c(F)c3n2)-c2cc(O)cc3ccc(F)c(c23)CCOCCN4C)C1 [Example 49] |  | 
4 | 5.90 | 6.05 | 6.18 | 6.05 | C=C1CN2CCC[C@@]2(COc2nc(N3CCC[C@@](C)(O)C3)c3cc4c(c(F)c3n2)-c2cccc3ccc(F)c(c23)CCOCCN4C)C1 [Example 54, (R)-1-(3,15-difluoro-9-methyl-13-(((S)-2-methylenetetrahydro-1H-pyrazin-7a(5H)-yl)methoxy)-4,5,8,9-tetrahydro-7H-naphtho[1′,8′:7,8,9][1]oxa[4]azacycloundeca[5,6-g]quinazoline-11-yl)-3-methylpiperidin-3-ol] |  | 
5 | 5.84 | 6.18 | 6.69 | 6.15 | C=C1CN2CCC[C@@]2(COc2nc(N3CCC[C@@](C)(O)C3)c3cc4c(c(F)c3n2)-c2cc(N)cc3ccc(F)c(c23)CCOCCN4C)C1 [Example 56, (R)-1-(17-amino-3,15-difluoro-9-methyl-13-(((S)-2-methylenetetrahydro-1H-pyrazin-7a(5H)-yl)methoxy)-4,5,8,9-tetrahydro-7H-naphtho[1′,8′:7,8,9][1]oxa[4]azacycloundeca[5,6-g]quinazoline-11-yl)-3-methylpiperidin-3-ol] |  | 
